Data reported in the supplement of paper PMC10307832.

Columns and labels:
Experiment in all cases: relative viability (nuclei count vs DMSO), 5 days (fraction); higher = more cells survive
[1] = tested on: Calu-6
Procedure, shortened: (§1)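 A single step with final 0.05% Triton X-100, 1% formaldehyde and 1 ug/ml Hoechst fixed the cells and stained nuclei 5 days after treatment. Lung cancer cell lines in 1536-well plates had been treated by pin tool the day after seeding with one drug alone or a fixed anchor-drug dose plus five library-drug doses (not always all listed) in √10 steps, and nuclei were counted on 4× images. Relative viability is the ratio of nuclei in treated wells to nuclei in vehicle wells, taken as the median of duplicate plates.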

[2] = tested on: NCI-H1563
Procedure, shortened: as §1

[3] = tested on: NCI-H1299
Procedure, shortened: as §1

[4] = tested on: A549
Procedure, shortened: as §1

[5] = tested on: NCI-H1703
Procedure, shortened: as §1

[6] = tested on: EBC-1
Procedure, shortened: as §1

[7] = tested on: IA-LM
Procedure, shortened: as §1

[8] = tested on: SW 900
Procedure, shortened: as §1

[9] = tested on: NCI-H1648
Procedure, shortened: as §1

[10] = tested on: NCI-H2342
Procedure, shortened: as §1

[11] = tested on: NCI-H522
Procedure, shortened: as §1

Structure (SMILES): O=C(O)CCCCC(CCSCc1ccccc1)SCc1ccccc1 (stereo unspecified) [CPI-613] + C[C@]1(O)C[C@@H](c2nc(-c3ccc4ccc(-c5ccccc5)nc4c3)c3c(N)nccn32)C1 [Linsitinib] (partner 1 µM)
- relative viability ([1]; first compound 5 µM): 1.02
- relative viability ([1]; first compound 50 µM): 0.726
- relative viability ([1]; first compound 158.11 µM): 0.905
- relative viability ([1]; first compound 500 µM): 0.658
- relative viability ([2]; first compound 5 µM): 1.26
- relative viability ([2]; first compound 15.81 µM): 1.21
- relative viability ([2]; first compound 50 µM): 1.23
- relative viability ([2]; first compound 158.11 µM): 0.454
- relative viability ([2]; first compound 500 µM): 0.208
- relative viability ([3]; first compound 5 µM): 0.933
- relative viability ([3]; first compound 15.81 µM): 0.894
- relative viability ([3]; first compound 50 µM): 0.869
- relative viability ([3]; first compound 158.11 µM): 1
- relative viability ([3]; first compound 500 µM): 0.957
- relative viability ([4]; first compound 5 µM): 0.529
- relative viability ([4]; first compound 15.81 µM): 0.521
- relative viability ([4]; first compound 50 µM): 0.588
- relative viability ([4]; first compound 158.11 µM): 0.722
- relative viability ([4]; first compound 500 µM): 0.597
- relative viability ([5]; first compound 5 µM): 1.21
- relative viability ([5]; first compound 15.81 µM): 0.809
- relative viability ([5]; first compound 50 µM): 0.568
- relative viability ([5]; first compound 158.11 µM): 0.17
- relative viability ([5]; first compound 500 µM): 0.439
- relative viability ([6]; first compound 5 µM): 0.874
- relative viability ([6]; first compound 15.81 µM): 0.695
- relative viability ([6]; first compound 50 µM): 0.593
- relative viability ([6]; first compound 158.11 µM): 0.786
- relative viability ([6]; first compound 500 µM): 0.608
- relative viability ([7]; first compound 5 µM): 0.703
- relative viability ([7]; first compound 15.81 µM): 0.364
- relative viability ([7]; first compound 50 µM): 0.432
- relative viability ([7]; first compound 158.11 µM): 0.527
- relative viability ([7]; first compound 500 µM): 0.358

Structure (SMILES): O=C(O)CCCCC(CCSCc1ccccc1)SCc1ccccc1 (stereo unspecified) [CPI-613] + Cc1nc(NC(=O)N2CCC[C@H]2C(N)=O)sc1-c1ccnc(C(C)(C)C(F)(F)F)c1 [Alpelisib] (partner 2 µM)
- relative viability ([1]; first compound 5 µM): 0.997
- relative viability ([1]; first compound 15.81 µM): 0.876
- relative viability ([1]; first compound 50 µM): 0.891
- relative viability ([1]; first compound 158.11 µM): 0.174
- relative viability ([1]; first compound 500 µM): 0.0521
- relative viability ([2]; first compound 5 µM): 0.958
- relative viability ([2]; first compound 15.81 µM): 0.938
- relative viability ([2]; first compound 50 µM): 0.939
- relative viability ([2]; first compound 158.11 µM): 0.796
- relative viability ([2]; first compound 500 µM): 0.113
- relative viability ([3]; first compound 5 µM): 1.02
- relative viability ([3]; first compound 15.81 µM): 1.04
- relative viability ([3]; first compound 50 µM): 1.04
- relative viability ([3]; first compound 158.11 µM): 1.09
- relative viability ([3]; first compound 500 µM): 1.08
- relative viability ([4]; first compound 5 µM): 0.859
- relative viability ([4]; first compound 15.81 µM): 0.675
- relative viability ([4]; first compound 50 µM): 0.69
- relative viability ([4]; first compound 158.11 µM): 0.384
- relative viability ([4]; first compound 500 µM): 0.0243
- relative viability ([5]; first compound 5 µM): 0.381
- relative viability ([5]; first compound 15.81 µM): 0.484
- relative viability ([5]; first compound 50 µM): 0.275
- relative viability ([5]; first compound 158.11 µM): 0.208
- relative viability ([5]; first compound 500 µM): 0.0611
- relative viability ([6]; first compound 5 µM): 0.823
- relative viability ([6]; first compound 15.81 µM): 0.651
- relative viability ([6]; first compound 50 µM): 0.678
- relative viability ([6]; first compound 158.11 µM): 0.199
- relative viability ([6]; first compound 500 µM): 0.0384
- relative viability ([7]; first compound 5 µM): 0.614
- relative viability ([7]; first compound 15.81 µM): 0.679
- relative viability ([7]; first compound 50 µM): 0.644
- relative viability ([7]; first compound 158.11 µM): 0.399
- relative viability ([7]; first compound 500 µM): 0.0122

Structure (SMILES): O=C(O)CCCCC(CCSCc1ccccc1)SCc1ccccc1 (stereo unspecified) [CPI-613] + Nc1nc2[nH]cc(CCc3ccc(C(=O)N[C@@H](CCC(=O)O)C(=O)O)cc3)c2c(=O)[nH]1 [Pemetrexed] (partner 0.2 µM)
- relative viability ([2]; first compound 5 µM): 0.732
- relative viability ([2]; first compound 15.81 µM): 0.713
- relative viability ([2]; first compound 50 µM): 0.727
- relative viability ([2]; first compound 158.11 µM): 0.631
- relative viability ([2]; first compound 500 µM): 0.394
- relative viability ([8]; first compound 5 µM): 0.451
- relative viability ([8]; first compound 50 µM): 0.47
- relative viability ([8]; first compound 158.11 µM): 0.372
- relative viability ([8]; first compound 500 µM): 0.0088
- relative viability ([9]; first compound 5 µM): 0.639
- relative viability ([9]; first compound 15.81 µM): 0.623
- relative viability ([9]; first compound 50 µM): 0.823
- relative viability ([9]; first compound 158.11 µM): 0.527
- relative viability ([9]; first compound 500 µM): 0.139
- relative viability ([10]; first compound 5 µM): 0.743
- relative viability ([10]; first compound 15.81 µM): 0.761
- relative viability ([10]; first compound 50 µM): 0.804
- relative viability ([10]; first compound 158.11 µM): 0.744
- relative viability ([10]; first compound 500 µM): 0.785
- relative viability ([11]; first compound 5 µM): 1.04
- relative viability ([11]; first compound 15.81 µM): 1.06
- relative viability ([11]; first compound 50 µM): 1.3
- relative viability ([11]; first compound 158.11 µM): 0.857
- relative viability ([11]; first compound 500 µM): 0.473

Structure (SMILES): O=c1[nH]c2ccccc2n1C1CCN(CCCC(c2ccc(F)cc2)c2ccc(F)cc2)CC1 [Pimozide] + CC(=O)Nc1cccc(-n2c(=O)n(C3CC3)c(=O)c3c(Nc4ccc(I)cc4F)n(C)c(=O)c(C)c32)c1 [Trametinib] (partner 0.02 µM)
- relative viability ([8]; first compound 0.08 µM): 0.743
- relative viability ([8]; first compound 0.253 µM): 0.801
- relative viability ([8]; first compound 2.53 µM): 0.72
- relative viability ([8]; first compound 8 µM): 0.802
- relative viability ([9]; first compound 0.08 µM): 0.423
- relative viability ([9]; first compound 0.8 µM): 0.34
- relative viability ([9]; first compound 2.53 µM): 0.373
- relative viability ([9]; first compound 8 µM): 0.416
- relative viability ([10]; first compound 0.08 µM): 0.661
- relative viability ([10]; first compound 0.253 µM): 0.872
- relative viability ([10]; first compound 0.8 µM): 0.676
- relative viability ([10]; first compound 2.53 µM): 0.826
- relative viability ([10]; first compound 8 µM): 0.759
- relative viability ([11]; first compound 0.08 µM): 0.738
- relative viability ([11]; first compound 0.253 µM): 0.751
- relative viability ([11]; first compound 0.8 µM): 0.733
- relative viability ([11]; first compound 2.53 µM): 0.746
- relative viability ([11]; first compound 8 µM): 0.811
